According to paper PMC3954112 (Drug and alcohol dependence, 2013):
Several values for one entry are separate records, joined by “and”; a condition that tells them apart may be missing. Equal entries are not always repeated. Entries after “also recorded” stand apart in the source; their conditions may differ. Where two headings read alike, the source gives them in different places.

Assays:
[1] = system: D1 receptor; conditions: ref Katz et al., 1999; cited from earlier work
[2] = cited from earlier work; for effect on locomotor activity: ref Desai et al. (2005)
[3] = ref Katz et al., 1999; cited from earlier work
[4] = ref Abrahams et al., 1998; Katz et al., 1999; cited from earlier work
[5] = system: orphanin FQ/nociception; GABAA; histamine H1, 2, 3, and 4; muscarinic M1, 2, 3, 4, and 5; NMDA/MK801; assay: Binding screen at 10 μM, other receptors
[6] = system: mu, delta, and kappa opioid receptors; assay: Opioid receptor binding, [3H]diprenorphine; conditions: 10 μM
[7] = system: CD-1 mice; assay: Conditioned place preference; type: in vivo, mouse; conditions: l-ICP 10 mg/kg i.p. by itself; pre-test -24 ± 46 s; P>0.05
[8] = system: dopamine, norepinephrine and serotonin transporters; assay: Binding screen at 10 μM, monoamine transporters
[9] = molecular target: human D5 DA receptor (Homo sapiens, UniProt P21918); assay: cAMP formation in HEK cells expressing D5 receptor; type: cell-based
[10] = molecular target: human dopamine D3 receptor (Homo sapiens, UniProt P35462); assay: [35S]GTPγS binding assay, D3 receptor membranes; type: biochemical; conditions: 1 μM
[11] = system: CD-1 mice; assay: Spontaneous locomotor activity, non-habituated mice; type: in vivo, mouse; conditions: 10 mg/kg i.p.; for time of inhibition of spontaneous locomotor activity: mouse; for inhibition of locomotor activity (AUC) vs vehicle, 30-100 min: non-habituated mice
[12] = system: 5-HT1A, 1B, 1E, 2A, 2C, 3, 4, 5A, 6, and 7 serotonin receptors; assay: Binding screen at 10 μM, serotonin receptors
[13] = system: alpha1A, 1B, 2A, 2B, and 2C, and beta1 and 2 adrenergic receptors; assay: Binding screen at 10 μM, adrenergic receptors
[14] = system: More than 40 receptors, ion channels, and transporters; assay: Screening for pharmacological targets by binding assays; conditions: screen at 10 μM
[15] = molecular target: human DA D3 receptor (Homo sapiens, UniProt P35462); type: binding; conditions: read-out: Ki, D3; [3H]N-Methyl-spiperone; HEK293 membranes
[16] = HPLC analysis of l-ICP and possible metabolites in mouse serum; type: in vivo; conditions: 20 mg/kg i.p., serum 30 min after injection, HPLC UV 280 nm
[17] = molecular target: human dopamine D4 receptor (Homo sapiens, UniProt P21917); assay: [35S]GTPγS binding assay, D4 receptor membranes; type: biochemical; conditions: 1 μM
[18] = molecular target: human DA D1 receptor (Homo sapiens, UniProt P21728); assay: Competitive inhibition of [3H]SCH23390 binding, D1 receptor, HEK293 membranes; conditions: [3H]SCH23,390
[19] = molecular target: human DA D4 receptor (Homo sapiens, UniProt P21917); type: binding
[20] = system: CD-1 mice; assay: Repeated cocaine-induced locomotor sensitization; type: in vivo, mouse
[21] = molecular target: human DA D1, D2, D3, D4 and D5 receptors; assay: Dopamine receptor binding, statements grouped over subtypes
[22] = molecular target: human D1 DA receptor (Homo sapiens, UniProt P21728); assay: cAMP formation in HEK cells expressing D1 receptor; type: cell-based
[23] = system: CD-1 mice; assay: Acute cocaine-induced locomotor hyperactivity
[24] = ref Sun et al., 2009; cited from earlier work
[25] = molecular target: human DA D5 receptor (Homo sapiens, UniProt P21918); assay: biochemical; conditions: D5, [3H]SCH23,390, HEK293 membranes
[26] = system: rats; conditions: cited from earlier work; for reduction of locomotor activity over 2 h: 60 min pretreatment, rats, ref Mantsch et al., 2007
[27] = molecular target: D1-like dopamine receptors in calf striatal membranes; conditions: read-out: Ki, D1-like receptors, bovine striatal membranes; ref Xu et al. (1989); cited from earlier work
[28] = system: patients addicted only to heroin; conditions: treatment for one month; ref Yang et al., 2008; cited from earlier work
[29] = molecular target: human DA D2 receptor (Homo sapiens, UniProt P14416); assay: biochemical
[30] = system: D1; conditions: 10 μM; ref Mantsch et al. (2007); cited from earlier work
[31] = system: D3; conditions: 10 μM; ref Mantsch et al. (2007); cited from earlier work
[32] = system: D2; conditions: 10 μM; ref Mantsch et al. (2007); cited from earlier work
[33] = l-ICP 1, 3 or 10 mg/kg i.p. + saline
[34] = l-ICP 3 and 10 mg/kg i.p., 10 min before cocaine 20 mg/kg i.p.

Question: With `Oc1cc2c(cc1O)C(c1ccccc1)CNCC2` (stereo not shown) [SKF 38393] as the compound, how does the “efficacy of a full agonist” value [1] read?
Answer: ~ 50%

Question: What about the “effect on locomotor activity” value [2] of the same compound?
Answer: produced limited changes in locomotor activity

Question: And the “effect on cocaine-induced hyperlocomotion” value [3]?
Answer: produced dose-related decreases in cocaine-induced hyperlocomotion

Question: Which “effect on locomotor activity” value [2] does the source give for `CN1CCc2cc(O)c(O)cc2C(c2ccccc2)C1` (stereo not shown) [SKF 75670] here?
Answer: produced locomotor stimulation similar to full agonists

Question: With `C=CCN1CCc2cc(O)c(O)cc2C(c2ccccc2)C1` (stereo not shown) [SKF 77434] as the compound, how does the “efficacy of a full agonist” value [1] read?
Answer: ~ 50%

Question: And the “induction of CPP” value [4]?
Answer: nor did it cause CPP

Question: And the effect on locomotion ([2]; ref Abrahams et al., 1998, Katz et al., 1999)?
Answer: did not increase locomotion

Question: What about the “effect on locomotor activity” value [2] of the same compound?
Answer: produced locomotor stimulation similar to full agonists

Question: What about the “effect on cocaine-induced hyperlocomotion” value [3] of the same compound?
Answer: produced dose-related decreases in cocaine-induced hyperlocomotion

Question: For `COc1cc2c(cc1O)[C@@H]1Cc3ccc(OC)c(OC)c3CN1CC2` [l-ICP, l-isocorypalmine], which “binding to orphanin FQ, GABAA, histamine, muscarinic, NMDA/MK801 receptors” value [5] is on record?
Answer: did not bind significantly

Question: What about the “binding to mu, delta, and kappa opioid receptors” value [6] of the same compound?
Answer: did not bind significantly

Question: What about the “CPP score, post-test, l-ICP/saline” value [7] of the same compound?
Answer: -137 ± 70 s

Question: What about the “binding to dopamine, norepinephrine and serotonin transporters” value [8] of the same compound?
Answer: did not bind

Question: What about the “Emax, D5R, cAMP formation” value [9] of the same compound?
Answer: 65 % of DA and 65±10 % of DA

Question: And the EC50 ([9]; read-out: EC50, D5R, cAMP formation)?
Answer: 20 ± 4 nM

Question: And the “antagonist effect on DA dose-response curve, [35S]GTPγS, D3” value [10]?
Answer: significantly shifted the DA-induced D2, D3 and D4 dose-response curves to the right without affecting maximal response

Question: And the “time of inhibition of spontaneous locomotor activity” value [11]?
Answer: < 30 min

Question: And the “inhibition of locomotor activity (AUC) vs vehicle, 30-100 min” value [11]?
Answer: no significant inhibition; also recorded: had no effect

Question: And the “binding to serotonin receptors” value [12]?
Answer: did not bind significantly

Question: And the “binding to adrenergic receptors” value [13]?
Answer: did not bind significantly

Question: And the “binding to screened pharmacological targets (panel result)” value [14]?
Answer: had significant affinities only for DA receptors

Question: What about the Ki [15] of the same compound?
Answer: 37.3 ± 3.4 nM

Question: What about the “compounds identified in serum / metabolism” value [16] of the same compound?
Answer: not metabolized to a significant extent in 30 min

Question: What about the “antagonist effect on DA dose-response curve, [35S]GTPγS, D4” value [17] of the same compound?
Answer: significantly shifted the DA-induced D2, D3 and D4 dose-response curves to the right without affecting maximal response

Question: What about the Ki ([18]; read-out: Ki, D1 (L), D1R low expression (1 pg/ml tetracycline)) of the same compound?
Answer: […]

Question: And the Ki ([19]; read-out: Ki, D4, [3H]N-Methyl-spiperone, HEK293 membranes)?
Answer: 77.4 ± 17.5 nM

Question: What about the “effect of repeated l-ICP alone on locomotor activity, days 1-5” value ([20]; 10 mg/kg i.p., no cocaine, P=0.724 vs veh/sal) of the same compound?
Answer: did not affect locomotor activity

Question: And the “effect on cocaine-induced hyperlocomotion, day 1” value ([20]; l-ICP 10 mg/kg i.p. 10 min before cocaine 20 mg/kg i.p., P=0.003 vs veh/cocaine)?
Answer: significantly reduced

Question: What about the “effect on cocaine-induced hyperlocomotion, day 5” value ([20]; l-ICP 10 mg/kg i.p. once a day, P<0.001 vs veh/cocaine) of the same compound?
Answer: significantly reduced cocaine-induced hyperlocomotion on day 5

Question: What about the Ki ([21]; read-out: Ki values for D1 and D5 receptors, range over D1 and D5) of the same compound?
Answer: 5 to 10 nM

Question: What about the Ki ([21]; read-out: Ki values for D2, D3 and D4 receptors, range over D2, D3 and D4) of the same compound?
Answer: 37 to 78 nM and 37 to 77 nM

Question: And the “EC50, D1R (L), cAMP formation” value ([22]; low D1 expression (0.093±0.005 pmol/mg protein), NA: No activity up to 10 μM)?
Answer: […]

Question: And the “Emax, D1R (M), cAMP formation” value ([22]; moderate D1 expression)?
Answer: […]

Question: What about the EC50 ([22]; read-out: EC50, D1R (H), cAMP formation, high D1 expression (5.0±0.2 pmol/mg protein)) of the same compound?
Answer: […]

Question: And the “effect on ambulatory activity in saline-treated habituated mice” value [23, 33]?
Answer: had no effect

Question: And the “effect on non-ambulatory repetitive activity in saline-treated habituated mice” value [23, 33]?
Answer: had no effect

Question: And the “effect on total activity in saline-treated habituated mice” value [23, 33]?
Answer: did not reduce spontaneous locomotor activity; also recorded: had no effect

Question: And the “effect on acute cocaine-induced hyperlocomotion (summary)” value ([23]; l-ICP 3 and 10 mg/kg)?
Answer: significantly reduced acute cocaine-induced hyperlocomotion

Question: And the “effect on cocaine-induced ambulatory activity” value [23, 34]?
Answer: dose-dependently decreased cocaine-induced hyperactivities

Question: What about the “effect on cocaine-induced non-ambulatory repetitive activity” value [23, 34] of the same compound?
Answer: dose-dependently decreased cocaine-induced hyperactivities

Question: And the “effect on cocaine-induced total activity” value [23, 34]?
Answer: dose-dependently decreased cocaine-induced hyperactivities

Question: For `COc1cc2c(cc1O)[C@@H]1Cc3ccc(O)c(OC)c3CN1CC2` [l-Stepholidine], which blood-brain barrier penetration [24] is on record?
Answer: penetrates the blood-brain barrier well

Question: Which Ki [25] does the source give for `COc1cc2c(cc1OC)[C@@H]1Cc3ccc(OC)c(OC)c3CN1CC2` [l-THP, l-tetrahydropalmatine] here?
Answer: ~300 nM

Question: And the “reduction of locomotor activity over 2 h” value ([26]; 3.75 mg/kg i.p.)?
Answer: ~ 40%

Question: What about the “reduction of locomotor activity over 2 h” value ([26]; 7.5 mg/kg i.p.) of the same compound?
Answer: ~ 90%

Question: And the “reduction of locomotion over 2 h” value ([26]; 10 mg/kg, ref Xi et al. (2007))?
Answer: ~ 80%

Question: And the Ki [27]?
Answer: 1100 nM

Question: What about the “craving and withdrawal symptoms during treatment” value [28] of the same compound?
Answer: significantly reduced craving and withdrawal symptoms

Question: What about the “enhancement of abstinence rate three months after discharge” value [28] of the same compound?
Answer: three-fold

Question: What about the Ki [29] of the same compound?
Answer: > 1000 nM

Question: What about the “time of inhibition of spontaneous locomotor activity” value [11] of the same compound?
Answer: > 90 min

Question: And the “inhibition of locomotor activity (AUC) vs vehicle, 30-100 min” value [11]?
Answer: about 60%

Question: What about the “binding to screened pharmacological targets (panel result)” value [14] of the same compound?
Answer: none of over 50 pharmacological targets bound l-THP with high affinity

Question: And the Ki [19]?
Answer: > 1000 nM

Question: What about the “inhibition of binding to D1” value [30] of the same compound?
Answer: 97%

Question: And the “inhibition of binding to D3” value [31]?
Answer: 83%

Question: What about the “inhibition of binding to D2” value [32] of the same compound?
Answer: 87%
